Where two headings read alike, the source gives them in different places.
Assays:
[1] = tested on: SR
[2] = tested on: UACC-257
[3] = tested on: LOX IMVI
[4] = tested on: HS 57BT
[5] = tested on: A498
[6] = tested on: OVCAR-4
[7] = tested on: SF-295
[8] = tested on: panel of 60 human cancer cell lines; experiment: Screen against a panel of 60 human tumor cell lines (single dose and five dose), panel and sub-panel statements; format: cell-based
[9] = tested on: UO-31
[10] = tested on: AML 052308 cells
Experimental: For each compound, in vitro cell culture studies were performed in which a range of concentrations (0.25-20 μM) was tested for cytotoxicity against leukemia cell lines, primary leukemia specimens and normal bone marrow controls.

[11] = tested on: HOP-92
[12] = tested on: HT29
[13] = tested on: TK-10
[14] = tested on: UACC-62
[15] = tested on: MALME-3M
[16] = tested on: NCI-H522
[17] = tested on: 786-0
[18] = tested on: A549/ATCC
[19] = tested on: U251

C=C1C(=O)O[C@H]2[C@H]1CC/C(COC(=O)c1cc3ccccc3[nH]1)=C\CC[C@@]1(C)O[C@@H]21 [BS-1-28]
CC50 [1]: > 100000 nM
Percent Growth ([1]; SR, Log10 Concentration −4.0): −39%
Percent Growth ([1]; SR, Log10 Concentration −5.0): −28%
Percent Growth ([1]; SR, Log10 Concentration −6.0): 53%
Percent Growth ([1]; SR, Log10 Concentration −7.0): 98%
Percent Growth ([1]; SR, Log10 Concentration −8.0): 162%
GI50 ([1]; SR, NCI five dose): 1080 nM
TGI ([1]; SR, NCI five dose): 4.51E−6
CC50 [2]: 6980 nM
Percent Growth ([2]; UACC-257, Log10 Concentration −4.0): −78%
Percent Growth ([2]; UACC-257, Log10 Concentration −5.0): −75%
Percent Growth ([2]; UACC-257, Log10 Concentration −6.0): 53%
Percent Growth ([2]; UACC-257, Log10 Concentration −7.0): 93%
Percent Growth ([2]; UACC-257, Log10 Concentration −8.0): 98%
GI50 ([2]; UACC-257, NCI five dose): 1610 nM
TGI ([2]; UACC-257, NCI five dose): 3.36E−6
CC50 [3]: 732 nM
Percent Growth ([3]; LOX IMVI, Log10 Concentration −4.0): −81%
Percent Growth ([3]; LOX IMVI, Log10 Concentration −5.0): −88%
Percent Growth ([3]; LOX IMVI, Log10 Concentration −6.0): −72%
Percent Growth ([3]; LOX IMVI, Log10 Concentration −7.0): 93%
Percent Growth ([3]; LOX IMVI, Log10 Concentration −8.0): 93%
GI50 ([3]; LOX IMVI, NCI five dose): 182 nM
TGI ([3]; LOX IMVI, NCI five dose): 3.65E−7
CC50 [4]: > 100000 nM
Percent Growth ([4]; HS 57BT, Log10 Concentration −4.0): −20%
Percent Growth ([4]; HS 57BT, Log10 Concentration −5.0): −5%
Percent Growth ([4]; HS 57BT, Log10 Concentration −6.0): 78%
Percent Growth ([4]; HS 57BT, Log10 Concentration −7.0): 84%
Percent Growth ([4]; HS 57BT, Log10 Concentration −8.0): 47%
TGI ([4]; HS 57BT, NCI five dose): 8.71E−6
CC50 [5]: 5630 nM
Percent Growth ([5]; A498, Log10 Concentration −4.0): −95%
Percent Growth ([5]; A498, Log10 Concentration −5.0): −99%
Percent Growth ([5]; A498, Log10 Concentration −6.0): 97%
Percent Growth ([5]; A498, Log10 Concentration −7.0): 102%
Percent Growth ([5]; A498, Log10 Concentration −8.0): 110%
GI50 ([5]; A498, NCI five dose): 1740 nM
TGI ([5]; A498, NCI five dose): 3.43E−6
CC50 [6]: 8430 nM
Percent Growth ([6]; OVCAR-4, Log10 Concentration −4.0): −84%
Percent Growth ([6]; OVCAR-4, Log10 Concentration −5.0): −58%
Percent Growth ([6]; OVCAR-4, Log10 Concentration −6.0): 48%
Percent Growth ([6]; OVCAR-4, Log10 Concentration −7.0): 88%
Percent Growth ([6]; OVCAR-4, Log10 Concentration −8.0): 4%
TGI ([6]; OVCAR-4, NCI five dose): 2.85E−6
CC50 [7]: 12000 nM
Percent Growth ([7]; SF-295, Log10 Concentration −4.0): −95%
Percent Growth ([7]; SF-295, Log10 Concentration −5.0): .46%
Percent Growth ([7]; SF-295, Log10 Concentration −6.0): 79%
Percent Growth ([7]; SF-295, Log10 Concentration −7.0): 89%
Percent Growth ([7]; SF-295, Log10 Concentration −8.0): 85%
GI50 ([7]; SF-295, NCI five dose): 1710 nM
TGI ([7]; SF-295, NCI five dose): 4.28E−6
Growth inhibition, five dose screening ([8]; CCRF-CEM, HL-60 (TB), K-562, RPMI-8226, HOP-92, NCI-H522, HCT-116, HCT-15, SW-620, LOX IMVI, M14, MDA-MB-435, 786-0, ACHN, UO-31): potent nanomolar growth inhibition
Anticancer activity, five dose screening ([8]; melanoma, leukemia, colon, CNS, breast, ovarian, non-small cell lung, renal, and prostate cancers): remarkable anticancer activity
Outcome of initial single dose screening ([8]; single concentration 10^−5 M, more than 60% growth inhibition in at least eight cell lines of the panel): selected for five dose screening
CC50 [9]: 5000 nM
Percent Growth ([9]; UO-31, Log10 Concentration −4.0): −89%
Percent Growth ([9]; UO-31, Log10 Concentration −5.0): −92%
Percent Growth ([9]; UO-31, Log10 Concentration −6.0): 49%
Percent Growth ([9]; UO-31, Log10 Concentration −7.0): 74%
Percent Growth ([9]; UO-31, Log10 Concentration −8.0): 72%
GI50 ([9]; UO-31, NCI five dose): 887 nM
TGI ([9]; UO-31, NCI five dose): 2.21E−6
Fold more cytotoxic than MMB [10]: around 7 fold
CC50 [11]: 4660 nM
Percent Growth ([11]; HOP-92, Log10 Concentration −4.0): −97%
Percent Growth ([11]; HOP-92, Log10 Concentration −5.0): −91%
Percent Growth ([11]; HOP-92, Log10 Concentration −6.0): 40%
Percent Growth ([11]; HOP-92, Log10 Concentration −7.0): 71%
Percent Growth ([11]; HOP-92, Log10 Concentration −8.0): 74%
GI50 ([11]; HOP-92, NCI five dose): 480 nM
TGI ([11]; HOP-92, NCI five dose): 2.02E−6
CC50 [12]: 5970 nM
Percent Growth ([12]; HT29, Log10 Concentration −4.0): −80%
Percent Growth ([12]; HT29, Log10 Concentration −5.0): −57%
Percent Growth ([12]; HT29, Log10 Concentration −6.0): −25%
Percent Growth ([12]; HT29, Log10 Concentration −7.0): 109%
Percent Growth ([12]; HT29, Log10 Concentration −8.0): 103%
GI50 ([12]; HT29, NCI five dose): 276 nM
TGI ([12]; HT29, NCI five dose): 6.51E−7
CC50 [13]: 5390 nM
Percent Growth ([13]; TK-10, Log10 Concentration −4.0): −98%
Percent Growth ([13]; TK-10, Log10 Concentration −5.0): −96%
Percent Growth ([13]; TK-10, Log10 Concentration −6.0): 74%
Percent Growth ([13]; TK-10, Log10 Concentration −7.0): 117%
Percent Growth ([13]; TK-10, Log10 Concentration −8.0): 95%
GI50 ([13]; TK-10, NCI five dose): 1390 nM
TGI ([13]; TK-10, NCI five dose): 2.73E−6
CC50 [14]: 6980 nM
Percent Growth ([14]; UACC-62, Log10 Concentration −4.0): −15%
Percent Growth ([14]; UACC-62, Log10 Concentration −5.0): −73%
Percent Growth ([14]; UACC-62, Log10 Concentration −6.0): 75%
Percent Growth ([14]; UACC-62, Log10 Concentration −7.0): 91%
Percent Growth ([14]; UACC-62, Log10 Concentration −8.0): 97%
GI50 ([14]; UACC-62, NCI five dose): 1470 nM
TGI ([14]; UACC-62, NCI five dose): 3.21E−6
CC50 [15]: 6070 nM
Percent Growth ([15]; MALME-3M, Log10 Concentration −4.0): −82%
Percent Growth ([15]; MALME-3M, Log10 Concentration −5.0): −87%
Percent Growth ([15]; MALME-3M, Log10 Concentration −6.0): 82%
Percent Growth ([15]; MALME-3M, Log10 Concentration −7.0): 91%
Percent Growth ([15]; MALME-3M, Log10 Concentration −8.0): 91%
GI50 ([15]; MALME-3M, NCI five dose): 1560 nM
TGI ([15]; MALME-3M, NCI five dose): 3.07E−6
CC50 [16]: 6720 nM
Percent Growth ([16]; NCI-H522, Log10 Concentration −4.0): −72%
Percent Growth ([16]; NCI-H522, Log10 Concentration −5.0): −69%
Percent Growth ([16]; NCI-H522, Log10 Concentration −6.0): 43%
Percent Growth ([16]; NCI-H522, Log10 Concentration −7.0): 104%
Percent Growth ([16]; NCI-H522, Log10 Concentration −8.0): 83%
GI50 ([16]; NCI-H522, NCI five dose): 757 nM
TGI ([16]; NCI-H522, NCI five dose): 2.40E−6
CC50 [17]: 9010 nM
Percent Growth ([17]; 786-0, Log10 Concentration −4.0): −94%
Percent Growth ([17]; 786-0, Log10 Concentration −5.0): −90%
Percent Growth ([17]; 786-0, Log10 Concentration −6.0): 11%
Percent Growth ([17]; 786-0, Log10 Concentration −7.0): 102%
Percent Growth ([17]; 786-0, Log10 Concentration −8.0): 96%
GI50 ([17]; 786-0, NCI five dose): 371 nM
TGI ([17]; 786-0, NCI five dose): 1.28E−6
CC50 [18]: 59300 nM
Percent Growth ([18]; A549/ATCC, Log10 Concentration −4.0): −53%
Percent Growth ([18]; A549/ATCC, Log10 Concentration −5.0): −41%
Percent Growth ([18]; A549/ATCC, Log10 Concentration −6.0): 92%
Percent Growth ([18]; A549/ATCC, Log10 Concentration −7.0): 96%
Percent Growth ([18]; A549/ATCC, Log10 Concentration −8.0): 91%
GI50 ([18]; A549/ATCC, NCI five dose): 2060 nM
TGI ([18]; A549/ATCC, NCI five dose): 4.90E−6
CC50 [19]: 8680 nM
Percent Growth ([19]; U251, Log10 Concentration −4.0): −74%
Percent Growth ([19]; U251, Log10 Concentration −5.0): −59%
Percent Growth ([19]; U251, Log10 Concentration −6.0): 92%
Percent Growth ([19]; U251, Log10 Concentration −7.0): 96%
Percent Growth ([19]; U251, Log10 Concentration −8.0): 98%
GI50 ([19]; U251, NCI five dose): 1690 nM
TGI ([19]; U251, NCI five dose): 4.06E−6

Reference: patent publication US9920063B2, “Melampomagnolide B derivatives” (Board of Trustees of the University of Arkansas, priority 2013, dated 2018)
